Activity calls are given as the source filed them.
Legend:
Albumin = Albumin (Bos taurus, UniProt P02769); experiment: Counterscreen for inhibitors of T-cell receptor (TCR)-CD3 interaction: Fluorescence-based biochemical high throughput dose response assay to identify inhibitors of T-cell receptor (TCR)-CD3 interaction using a TAMRA-labeled BSA probe.; format: functional
[1] = target: T1, RNA-binding protein pos-1 (Caenorhabditis elegans, UniProt G5EF15); experiment: disruptors of C. elegans POS-1 RNA interaction – biochemical, fluorescence polarization, dose response (AID 1964);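 further: purified POS-1 fused to maltose binding protein made in E. coli; potency of compounds blocking POS-1 binding to fluorescent RNA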
T1 sequence (G5EF15 whole entry): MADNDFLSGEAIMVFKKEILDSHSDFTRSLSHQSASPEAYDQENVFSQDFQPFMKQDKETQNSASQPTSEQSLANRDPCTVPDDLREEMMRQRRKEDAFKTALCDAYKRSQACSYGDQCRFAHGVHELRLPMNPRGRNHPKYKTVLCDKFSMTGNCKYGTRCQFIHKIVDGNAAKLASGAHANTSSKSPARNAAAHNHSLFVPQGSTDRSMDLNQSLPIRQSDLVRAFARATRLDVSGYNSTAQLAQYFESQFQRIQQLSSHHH

[2] = target: T2, Zinc finger protein mex-5 (Caenorhabditis elegans, UniProt Q9XUB2); experiment: potency of MEX-5 RNA-binding blockers – biochemical, C. elegans, fluorescence polarization, dose response (AID 1960)
T2 sequence (Q9XUB2 whole entry): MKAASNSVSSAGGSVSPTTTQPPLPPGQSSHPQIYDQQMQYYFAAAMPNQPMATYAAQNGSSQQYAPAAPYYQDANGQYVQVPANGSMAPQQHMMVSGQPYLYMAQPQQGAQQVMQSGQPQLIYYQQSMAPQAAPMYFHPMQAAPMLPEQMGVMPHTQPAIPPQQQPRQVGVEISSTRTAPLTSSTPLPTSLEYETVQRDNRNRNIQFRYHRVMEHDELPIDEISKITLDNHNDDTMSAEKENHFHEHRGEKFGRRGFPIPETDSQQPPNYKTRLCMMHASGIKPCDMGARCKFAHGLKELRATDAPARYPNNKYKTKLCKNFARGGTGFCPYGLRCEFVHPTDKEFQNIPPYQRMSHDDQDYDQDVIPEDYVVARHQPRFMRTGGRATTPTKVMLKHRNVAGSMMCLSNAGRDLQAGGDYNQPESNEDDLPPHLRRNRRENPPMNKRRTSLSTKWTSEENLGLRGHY

[3] = viability loss in HepG2 liver cells – cell-based, ATP luminescence, cherry-pick, set 6, cytotoxicity control, dose response (AID 1053125); format: functional
Cytochrome P450 2C19 = Cytochrome P450 2C19 (Homo sapiens, UniProt P33261); experiment: Cytochrome panel assay with activity outcomes. Panel member name: p450-cyp2c19 Compounds with AC50 equal or less than 10 uM are considered active; format: functional; conditions: read-out: AC50
Beta-galactosidase = Beta-galactosidase (Escherichia coli, UniProt Q8VNN2); experiment: Dose response counterscreen for EBI2 assay utilizing the enzyme, b-galactosidase.; format: functional
Cytochrome P450 1A2 = target: T3, Cytochrome P450 1A2 (Homo sapiens, UniProt P05177);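 further: PubChem cytochrome P450 panel assay, CYP1A2 panel member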
T3 sequence (P05177 whole entry): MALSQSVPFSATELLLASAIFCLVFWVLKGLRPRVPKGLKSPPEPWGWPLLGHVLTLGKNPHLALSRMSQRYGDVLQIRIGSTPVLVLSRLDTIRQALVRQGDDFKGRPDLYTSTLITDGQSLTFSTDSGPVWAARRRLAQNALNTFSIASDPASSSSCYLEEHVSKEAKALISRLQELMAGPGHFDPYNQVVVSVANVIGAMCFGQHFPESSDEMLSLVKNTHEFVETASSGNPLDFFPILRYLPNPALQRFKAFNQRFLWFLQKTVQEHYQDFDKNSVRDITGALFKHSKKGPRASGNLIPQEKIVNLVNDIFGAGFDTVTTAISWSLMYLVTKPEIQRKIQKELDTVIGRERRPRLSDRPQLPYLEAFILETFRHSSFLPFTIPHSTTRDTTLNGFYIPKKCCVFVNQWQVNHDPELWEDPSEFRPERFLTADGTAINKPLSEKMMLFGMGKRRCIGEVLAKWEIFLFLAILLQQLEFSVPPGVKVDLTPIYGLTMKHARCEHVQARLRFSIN

[4] = target: Peroxisome proliferator-activated receptor gamma/Nuclear receptor coactivator 1 (Homo sapiens, UniProt P37231); experiment: (§1) TR-FRET dose response biochemical High Throughput Screening assay for agonists of the steroid receptor coactivator 1 (SRC-1) recruitment by the peroxisome proliferator-activated receptor gamma (PPAR gamma): non-selective agonists. [Related pubchem assays (depositor defined):AID1300, AID1808, AID504735, AID631]; format: protein assay
[5] = target: Peroxisome proliferator-activated receptor gamma/Nuclear receptor coactivator 3 (Homo sapiens, UniProt P37231); experiment: as §1, with “3 (SRC-3)” for “1 (SRC-1)”, “assays: 1301 (Confirmation screen.), 1048 (Primary screen.)]” for “assays (depositor defined):AID1300, AID1808, AID504735, AID631]”; format: functional
[6] = target: Peroxisome proliferator-activated receptor gamma/Nuclear receptor coactivator 2 (Homo sapiens, UniProt P37231); experiment: TR-FRET dose response biochemical High Throughput Screening assay for agonists of the steroid receptor coactivator 2 (SRC-2) recruitment by the peroxisome proliferator-activated receptor gamma (PPAR gamma): non-selective agonists. [Related pubchem assays: 1297, 1032 ]; format: functional
[7] = target: Photoreceptor-specific nuclear receptor (Homo sapiens, UniProt Q9Y5X4); format: functional, cell-based;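 further: CHO-S cells with Gal4-NCOR and VP16-NR2E3 two-hybrid luciferase reporter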
[8] = target: SWI/SNF-related matrix-associated actin-dependent regulator of chromatin subfamily A member 2 (Homo sapiens, UniProt P51531); experiment: Luminescence-based cell-based high throughput dose response assay to identify activators of the function of SWI/SNF related, matrix associated, actin dependent regulator of chromatin, subfamily a, member 2 (SMARCA2, BRM).; format: functional
[9] = Counterscreen for activators of the function of SWI/SNF related, matrix associated, actin dependent regulator of chromatin, subfamily a, member 2 (SMARCA2, BRM): Luminescence-based cell-based high throughput dose response assay to identify non-selective compounds using the VP16 reporter assay.; format: functional
[10] = target: Oxysterols receptor LXR-beta (Homo sapiens, UniProt P55055); format: functional, cell-based;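 further: agonist activity at LXR measured by a cell-based luminescence readout across a dose range, run as a counterscreen for daf-12 agonists; HEK293 cells with Gal4-LXR fusion and GAL4-driven luciferase reporter; potency for activation of Gal4-LXR reporter so compounds are agonists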
[11] = Trypanosoma cruzi growth suppression in host cells – NIH3T3 host cells, beta-gal luminescence, confirmation (AID 2044); format: functional, cell-based;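 further: intracellular parasites grown in NIH/3T3 mouse fibroblasts as host cells; luminescent beta-galactosidase reporter signal from transgenic T. cruzi replicating inside host cells; inhibitors lower the luminescence signal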
[12] = NIH3T3 cell viability loss – ATP luminescence, mouse fibroblasts, counter-screen, dose response (AID 2010); format: functional, cell-based;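 further: cells exposed to compound for about 90 hours before reading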
[13] = potency of ADAM10 substrate cleavage blockers – biochemical, QFRET, dose response (AID 743254);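 further: ADAM10 enzyme with the DM2 quenched FRET peptide as substrate; EDANS fluorescence gain as the protease cuts the substrate; inhibitor potency against ADAM10 proteolytic activity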
[14] = target: T4, Disintegrin and metalloproteinase domain-containing protein 17 (Homo sapiens, UniProt P78536); experiment: inhibition of ADAM17 substrate cleavage – biochemical, quenched FRET substrate, counter-screen for ADAM10 exosite inhibitor project, dose response (AID 743253)
INS1 = experiment: INS-1E survival protection against cytokine death – cell-based, luminescence, retest, dose response (AID 449756); format: functional; conditions: Rattus norvegicus;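 further: cell death triggered by IL-1 beta plus TNF-alpha plus IFN-gamma mixture; protective hits raise ATP signal compared with cytokine alone wells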
[15] = reduction of Shn3 3'UTR-driven luciferase in osteoblasts – cell-based, Clone20 osteoblasts, firefly luciferase, cherry-picked, dose response (AID 624132); format: functional;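 further: firefly luciferase luminescence from reporter carrying the Shn3 3'UTR in osteoblasts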
[16] = loss of viability in HepG2 cells – cell-based, CellTiter-Glo, cherry-picked, cytotoxicity control for Shn3 inhibitor project, dose response (AID 624134); format: functional
[17] = non-specific 3'UTR reporter inhibition in Clone20-Shn3RL – cell-based, Renilla luciferase, cherry-picked, counter-screen for Shn3 inhibitor project, dose response (AID 624133); format: functional
[18] = target: T4, Disintegrin and metalloproteinase domain-containing protein 17; experiment: exosite inhibitors of ADAM17, dose response, biochemical (AID 743260)
[19] = inhibition of ADAM10 peptide cleavage – biochemical, FRET peptide substrate, recombinant human ADAM10, selectivity assay for ADAM17 exosite inhibitor project, dose response (AID 743259);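 further: ADAM10 enzyme cleaving a FRET peptide substrate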
Major prion protein = Major prion protein (Homo sapiens, UniProt P04156); format: functional, cell-based
fMet-Leu-Phe receptor = fMet-Leu-Phe receptor (Homo sapiens, UniProt P21462); experiment: formyl peptide receptor binders – dose response (AID 519); format: functional

Q: With `CC(C)(C)c1ccc(C(=O)NCC(=O)NNC(=O)c2ccccc2O)cc1` as the compound, how does the IC50 (Albumin) read?
A: The IC50 was > 94.1 µM (inactive).

Q: For `N#CC1=C(N)OC2=C(C(=O)CCC2)C1c1cc2c(cc1Br)OCO2` (configuration not stated), which EC50 [1] is on record?
A: The EC50 was > 300 µM (not active).

Q: What about the EC50 [2] of the same compound?
A: Its EC50 is > 300 µM (not active).

Q: What about the AC50 [3] of the same compound?
A: The AC50 was > 52 µM (inactive).

Q: For `CCOC(=O)N1CCN(C(=O)c2cc(-c3ccc(F)cc3)[nH]c2C)CC1`, which AC50 (Cytochrome P450 2C19) is on record?
A: Its AC50 is 10 µM (inconclusive).

Q: And the IC50 (Beta-galactosidase)?
A: Its IC50 is > 80 µM (inactive).

Q: What about the AC50 (Cytochrome P450 1A2) of the same compound?
A: The AC50 was 20 µM (inconclusive).

Q: For `CCn1c(=O)cc(SCC(=O)Nc2ccc(C)cn2)c2ccccc21`, which EC50 [4] is on record?
A: The EC50 was > 79.4 µM (inactive).

Q: What about the EC50 [5] of the same compound?
A: The EC50 was > 79.4 µM (not active).

Q: And the EC50 [6]?
A: Its EC50 is > 79.4 µM (not active).

Q: What about the IC50 [7] of the same compound?
A: The IC50 was 0.469 µM (active).

Q: What about the EC50 [8] of the same compound?
A: The EC50 was > 91.2 µM (inactive).

Q: What about the EC50 [9] of the same compound?
A: Its EC50 is > 91.2 µM (inactive).

Q: With `Cn1c(NC(=O)CCC2CCCCC2)cc(=O)n(C)c1=O` as the compound, how does the EC50 [10] read?
A: The EC50 was > 67.5 µM (inactive).

Q: Which EC50 [11] does the source give for `S=C(Nc1ccc(Nc2ccccc2)cc1)NC1CCCCCC1` here?
A: Its EC50 is 2.21 µM (active).

Q: And the EC50 [12]?
A: The EC50 was 29 µM (active).

Q: What about the IC50 [13] of the same compound?
A: Its IC50 is > 7.72 µM (active).

Q: What about the IC50 [14] of the same compound?
A: The IC50 was > 69.5 µM (inactive).

Q: Which results are given for `Cc1cccc(Oc2cc(NC(=O)c3ccccc3)cc([N+](=O)[O-])c2)c1`?
A: AC50 (INS1): 3.57 µM (active); AC50 [15]: 3.09 µM (active); AC50 [16]: 45.5 µM (active); AC50 [17]: 13.6 µM (active); IC50 [18]: > 69.5 µM (inactive); IC50 [19]: > 69.5 µM (inactive)

Q: What does the source list for `CN(C)S(=O)(=O)c1ccc(NC(=O)CSc2ncnc3ccccc23)cc1`?
A: IC50 (Major prion protein): 16.5 µM (inactive); IC50 (cells): > 138 µM (inactive)

Q: With `COc1cc(C2C(C(=O)c3ccco3)=C(O)C(=O)N2CCc2ccccc2)ccc1O` (configuration not stated) as the compound, how does the Ki (fMet-Leu-Phe receptor) read?
A: Its Ki is > 66.7 µM (inactive).
